Results as given in the NIST ThermoML archive (doi:10.1016/j.jct.2015.08.031).
Where “and” joins values, the source holds several entries; their conditions need not be identical. Equal entries are not always repeated. ± gives the expanded uncertainty stated by the source.

Test: molar heat capacity at constant pressure
Settings: 101.33 kPa, Crystal, relaxation calorimetry

O[C@H]1[C@H](O)[C@H](O)OC[C@H]1O [β-D-arabinopyranose]
Settings	molar heat capacity at constant pressure
0.5 K	0.0007532 ± 8.2e-05 J/K/mol
1 K	0.00191 ± 0.00016 J/K/mol
1.5 K	0.0039 ± 0.0003 J/K/mol
1.93 K	0.00664 ± 0.00052 J/K/mol
2 K	0.007206 ± 0.00053 J/K/mol
2.03 K	0.00744 ± 0.00058 J/K/mol
2.14 K	0.00853 ± 0.00066 J/K/mol
2.26 K	0.00959 ± 0.00073 J/K/mol
2.38 K	0.01108 ± 0.00083 J/K/mol
2.5 K	0.01239 ± 0.0009 J/K/mol
2.51 K	0.01247 ± 0.00092 J/K/mol
2.64 K	0.01457 ± 0.0011 J/K/mol
2.78 K	0.01653 ± 0.0012 J/K/mol
2.94 K	0.01919 ± 0.0014 J/K/mol
3 K	0.02013 ± 0.0015 J/K/mol
3.1 K	0.02195 ± 0.0016 J/K/mol
3.27 K	0.02605 ± 0.0019 J/K/mol
3.43 K	0.02956 ± 0.0021 J/K/mol
3.5 K	0.03122 ± 0.0022 J/K/mol
3.63 K	0.03481 ± 0.0025 J/K/mol
3.81 K	0.03999 ± 0.0029 J/K/mol
4 K	0.04664 ± 0.0033 J/K/mol
4.03 K	0.04762 ± 0.0034 J/K/mol
4.23 K	0.05477 ± 0.0039 J/K/mol
4.47 K	0.06546 ± 0.0047 J/K/mol
4.5 K	0.06755 ± 0.0048 J/K/mol
4.7 K	0.07779 ± 0.0056 J/K/mol
4.96 K	0.09273 ± 0.0066 J/K/mol
5 K	0.09528 ± 0.0068 J/K/mol
5.22 K	0.109 ± 0.0077 J/K/mol
5.5 K	0.1311 ± 0.0093 J/K/mol and 0.1314 ± 0.0093 J/K/mol
5.79 K	0.157 ± 0.011 J/K/mol
6 K	0.1776 ± 0.013 J/K/mol
6.1 K	0.19 ± 0.013 J/K/mol
6.42 K	0.2256 ± 0.016 J/K/mol
6.5 K	0.2359 ± 0.017 J/K/mol
6.77 K	0.2719 ± 0.019 J/K/mol
7 K	0.308 ± 0.022 J/K/mol
7.12 K	0.328 ± 0.023 J/K/mol
7.5 K	0.396 ± 0.028 J/K/mol
7.51 K	0.3961 ± 0.028 J/K/mol
7.9 K	0.4794 ± 0.034 J/K/mol
8 K	0.5015 ± 0.035 J/K/mol
8.33 K	0.5808 ± 0.041 J/K/mol
8.5 K	0.6256 ± 0.044 J/K/mol
8.76 K	0.6949 ± 0.049 J/K/mol
9 K	0.7669 ± 0.054 J/K/mol
9.24 K	0.8445 ± 0.059 J/K/mol
9.5 K	0.9266 ± 0.065 J/K/mol
9.72 K	1.004 ± 0.07 J/K/mol
10 K	1.105 ± 0.077 J/K/mol
10.23 K	1.191 ± 0.083 J/K/mol
10.77 K	1.405 ± 0.098 J/K/mol
11 K	1.517 ± 0.11 J/K/mol
11.32 K	1.667 ± 0.12 J/K/mol
11.92 K	1.965 ± 0.14 J/K/mol
12 K	2 ± 0.14 J/K/mol
12.56 K	2.311 ± 0.16 J/K/mol
13 K	2.549 ± 0.18 J/K/mol
13.23 K	2.685 ± 0.19 J/K/mol
13.94 K	3.128 ± 0.22 J/K/mol
14 K	3.158 ± 0.22 J/K/mol
14.68 K	3.61 ± 0.25 J/K/mol
15 K	3.821 ± 0.27 J/K/mol
15.46 K	4.149 ± 0.29 J/K/mol
16 K	4.53 ± 0.32 J/K/mol
16.31 K	4.747 ± 0.33 J/K/mol
17 K	5.279 ± 0.37 J/K/mol
17.15 K	5.4 ± 0.38 J/K/mol
18 K	6.059 ± 0.42 J/K/mol
18.08 K	6.128 ± 0.43 J/K/mol
19 K	6.866 ± 0.48 J/K/mol
19.05 K	6.89 ± 0.48 J/K/mol
20 K	7.693 ± 0.54 J/K/mol
20.08 K	7.769 ± 0.32 J/K/mol
21.14 K	8.663 ± 0.35 J/K/mol
22.3 K	9.532 ± 0.39 J/K/mol
23.47 K	10.62 ± 0.43 J/K/mol
24.74 K	11.68 ± 0.47 J/K/mol
25 K	11.98 ± 0.49 J/K/mol
26.04 K	12.89 ± 0.52 J/K/mol
27.46 K	14.03 ± 0.57 J/K/mol
28.89 K	15.45 ± 0.63 J/K/mol
30 K	16.33 ± 0.66 J/K/mol
30.43 K	16.8 ± 0.68 J/K/mol
32.08 K	18.29 ± 0.74 J/K/mol
33.81 K	19.73 ± 0.8 J/K/mol
35 K	20.68 ± 0.84 J/K/mol
35.6 K	21.31 ± 0.87 J/K/mol
37.52 K	22.92 ± 0.93 J/K/mol
39.51 K	24.55 ± 1 J/K/mol
40 K	25.02 ± 1 J/K/mol
41.64 K	26.31 ± 1.1 J/K/mol
43.83 K	28.17 ± 1.1 J/K/mol
45 K	29.23 ± 1.2 J/K/mol
46.19 K	30 ± 1.2 J/K/mol
48.63 K	31.87 ± 1.3 J/K/mol
50 K	33.14 ± 1.3 J/K/mol
51.26 K	34.52 ± 1.4 J/K/mol
53.96 K	35.9 ± 1.5 J/K/mol
55 K	36.8 ± 1.5 J/K/mol
56.88 K	38.09 ± 1.5 J/K/mol
59.89 K	40.36 ± 1.6 J/K/mol
60 K	40.35 ± 1.6 J/K/mol
63.13 K	42.59 ± 1.7 J/K/mol
65 K	43.88 ± 1.8 J/K/mol
66.46 K	45.03 ± 1.8 J/K/mol
70 K	47.36 ± 1.9 J/K/mol
70.07 K	47.59 ± 1.9 J/K/mol
73.76 K	50.07 ± 2 J/K/mol
75 K	50.8 ± 2.1 J/K/mol
77.78 K	52.92 ± 2.1 J/K/mol
80 K	54.2 ± 2.2 J/K/mol
81.9 K	55.02 ± 2.2 J/K/mol
85 K	57.56 ± 2.3 J/K/mol
86.34 K	58.01 ± 2.4 J/K/mol
90 K	60.88 ± 2.5 J/K/mol
90.84 K	61.56 ± 2.5 J/K/mol
95 K	64.18 ± 2.6 J/K/mol
95.82 K	64.72 ± 2.6 J/K/mol
100 K	67.44 ± 2.7 J/K/mol
100.82 K	67.63 ± 2.7 J/K/mol
105.87 K	71.22 ± 2.9 J/K/mol
110 K	73.87 ± 3 J/K/mol
110.95 K	74.61 ± 3 J/K/mol
116.03 K	77.25 ± 3.1 J/K/mol
120 K	80.2 ± 3.3 J/K/mol
121.05 K	81.12 ± 3.3 J/K/mol
126.07 K	84.2 ± 3.4 J/K/mol
130 K	86.45 ± 3.5 J/K/mol
131.11 K	87.48 ± 3.6 J/K/mol
136.18 K	90.66 ± 3.7 J/K/mol
140 K	92.63 ± 3.8 J/K/mol
141.2 K	93.47 ± 3.8 J/K/mol
146.26 K	96.4 ± 3.9 J/K/mol
150 K	98.75 ± 4 J/K/mol
151.33 K	99.46 ± 4 J/K/mol
156.34 K	102.71 ± 4.2 J/K/mol
160 K	104.83 ± 4.3 J/K/mol
161.42 K	105.84 ± 4.3 J/K/mol
166.44 K	108.82 ± 4.4 J/K/mol
170 K	110.86 ± 4.5 J/K/mol
171.52 K	111.71 ± 4.5 J/K/mol
176.58 K	114.66 ± 4.7 J/K/mol
180 K	116.86 ± 4.8 J/K/mol
181.62 K	117.85 ± 4.8 J/K/mol
186.66 K	121.01 ± 4.9 J/K/mol
190 K	122.82 ± 5 J/K/mol
191.69 K	123.97 ± 5 J/K/mol
196.75 K	126.57 ± 5.1 J/K/mol
200 K	128.77 ± 5.2 J/K/mol
201.79 K	129.39 ± 5.3 J/K/mol
206.8 K	132.11 ± 5.4 J/K/mol
210 K	134.69 ± 5.5 J/K/mol
211.88 K	135.86 ± 5.5 J/K/mol
216.86 K	138.45 ± 5.6 J/K/mol
220 K	140.59 ± 5.7 J/K/mol
221.99 K	141.54 ± 5.8 J/K/mol
226.98 K	144.9 ± 5.9 J/K/mol
230 K	146.48 ± 6 J/K/mol
232.03 K	147.66 ± 6 J/K/mol
237.15 K	150.47 ± 6.1 J/K/mol
240 K	152.35 ± 6.2 J/K/mol
242.11 K	153.65 ± 6.2 J/K/mol
247.24 K	156.9 ± 6.4 J/K/mol
250 K	158.21 ± 6.4 J/K/mol
252.28 K	159.78 ± 6.5 J/K/mol
257.34 K	162.75 ± 6.6 J/K/mol
260 K	164.06 ± 6.7 J/K/mol
262.36 K	165.45 ± 6.7 J/K/mol
267.38 K	168.46 ± 6.8 J/K/mol
270 K	169.9 ± 6.9 J/K/mol
272.39 K	171.4 ± 7 J/K/mol
273.15 K	171.74 ± 7 J/K/mol
277.53 K	174.86 ± 7.1 J/K/mol
280 K	175.73 ± 7.1 J/K/mol
282.55 K	177.62 ± 7.2 J/K/mol
287.61 K	180.21 ± 7.3 J/K/mol
290 K	181.55 ± 7.4 J/K/mol
292.62 K	182.92 ± 7.4 J/K/mol
297.64 K	185.3 ± 7.5 J/K/mol
298.15 K	186.29 ± 7.6 J/K/mol
300 K	187.36 ± 7.6 J/K/mol
302.65 K	188.73 ± 7.7 J/K/mol
